Test results: patent US20060069132A1, “Azolecarboxamide herbicides” (priority 2004, published 2006)

Experiments:
rice = test: Test B pre-/postemergence herbicide test; format: in vivo, Oryza sativa; details: 0 = no effect, 100 = complete control, preemergence
Method in brief: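 Test chemicals in a non-phytotoxic solvent mixture with surfactant were applied preemergence to seeded species and postemergence to plants 2-18 cm tall (1- to 4-leaf stage); rice and barnyardgrass were also tested in a flooded paddy at the 2-leaf stage. Visual rating versus controls after 13-15 days in greenhouse, scale 0 (no effect) to 100 (complete control).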

Surinam grass = test: Test C pre-/postemergence herbicide test; format: in vivo, Urochloa decumbens
Method in brief: (§1)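 Seeds were planted and sprayed preemergence with test chemicals in a non-phytotoxic solvent mixture containing surfactant; postemergence treatments went onto plants 2 to 18 cm tall (1- to 4-leaf stage). After 12 to 14 days in a greenhouse, injury was rated visually against untreated controls on a 0–100 scale.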

woolly cupgrass = test: Test C pre-/postemergence herbicide test; format: in vivo, Eriochloa villosa
Method in brief: as §1

goosegrass = test: Test C pre-/postemergence herbicide test; format: in vivo, Eleusine indica
Method in brief: as §1

johnsongrass = test: Test C pre-/postemergence herbicide test; format: in vivo, Sorghum halepense
Method in brief: as §1

eastern black nightshade = test: Test C pre-/postemergence herbicide test; format: in vivo, Solanum ptycanthum; details: preemergence
Method in brief: as §1

soybean = test: Test C pre-/postemergence herbicide test; format: in vivo, Glycine max
Method in brief: as §1

[1] = tested on: common (oilseed) sunflower; test: Test C pre-/postemergence herbicide test; format: in vivo, Helianthus annuus; details: preemergence
Method in brief: as §1

large crabgrass = test: Test A pre-/postemergence herbicide test; format: in vivo, Digitaria sanguinalis; details: for Plant response rating, Crabgrass, Large: Postemergence; for Crabgrass, Large plant response rating: Preemergence
Method in brief: (§2)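 Seeds sown in sandy loam received a preemergence directed soil spray of compound in non-phytotoxic solvent with surfactant; postemergence plants (2–10 cm, one- to two-leaf stage) were sprayed to runoff at the same time. After ~10 days in greenhouse, injury was rated visually versus untreated controls (0 = no effect, 100 = complete control).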

velvetleaf = test: Test A pre-/postemergence herbicide test; format: in vivo, Abutilon theophrasti; details: for Plant response rating, Velvetleaf: Postemergence; for Velvetleaf plant response rating: Preemergence
Method in brief: as §2

[2] = 250 g ai/ha, scale 0-100, preemergence
[3] = 500 g ai/ha, scale 0 to 100 (0 no effect, 100 complete control), visual, 12 to 14 days, preemergence
[4] = 62 g ai/ha, preemergence, scale 0 to 100
[5] = 125 g ai/ha, scale 0 (no effect) to 100 (complete control), visual, 12 to 14 days, preemergence
[6] = 500 g ai/ha, 0 to 100 scale, 0 no effect, 100 complete control
[7] = 2000 g ai/ha, 0 to 100 scale, 0 no effect, 100 complete control
[8] = 500 g ai/ha, visual rating, 0 to 100 scale (0 no effect, 100 complete control)
[9] = 31 g ai/ha, preemergence, scale 0 to 100
[10] = postemergence, 125 g ai/ha, scale 0 to 100
[11] = postemergence, 31 g ai/ha, scale 0 to 100
[12] = postemergence, 62 g ai/ha, scale 0 to 100
[13] = 125 g ai/ha, scale 0-100, preemergence
[14] = Postemergence, 125 g ai/ha, scale 0 to 100, 0 no effect, 100 complete control

CCc1nn(C(C)(C)C)cc1C(=O)Nc1cc(C(=O)N(C)C)ccn1 [Compound 293]
Rice plant response rating (0 to 100 scale) (rice; 125 g ai/ha): 90
Plant response rating, Rice (rice; 500 g ai/ha, visual rating): 100
Plant response rating, Surinam Grass (Surinam grass; [2]): 100
Plant response rating, Surinam Grass (Surinam grass; [3]): 100
Plant response rating, Cupgrass, Woolly (woolly cupgrass; [4]): 45
Plant response rating, Cupgrass, Woolly (woolly cupgrass; [5]): 70
Plant response rating, Cupgrass, Woolly (woolly cupgrass; [2]): 95
Plant response rating, Cupgrass, Woolly (woolly cupgrass; [3]): 100
Plant response rating, Goosegrass (goosegrass; [4]): 65
Plant response rating, Goosegrass (goosegrass; [5]): 85
Plant response rating, Goosegrass (goosegrass; [2]): 95
Plant response rating, Goosegrass (goosegrass; [3]): 100
Plant response rating, Johnsongrass (johnsongrass; [4]): 65
Plant response rating, Johnsongrass (johnsongrass; [5]): 95
Plant response rating, Johnsongrass (johnsongrass; [2]): 100
Plant response rating, Johnsongrass (johnsongrass; [3]): 100
Plant response rating, Nightshade (eastern black nightshade; 62 g ai/ha, scale 0 to 100): 65
Plant response rating, Nightshade (eastern black nightshade; 125 g ai/ha, scale 0 (no effect) to 100 (complete control), visual, 12 to 14 days): 100
Plant response rating, Nightshade (eastern black nightshade; 250 g ai/ha, scale 0-100): 100
Plant response rating, Nightshade (eastern black nightshade; 500 g ai/ha, scale 0 to 100 (0 no effect, 100 complete control), visual, 12 to 14 days): 100
Plant response rating, Soybean (soybean; [4]): 0
Plant response rating, Soybean (soybean; [2]): 90
Plant response rating, Soybean (soybean; [3]): 100
Plant response rating, Sunflower ([1]; 62 g ai/ha, scale 0 to 100): 10
Plant response rating, Sunflower ([1]; 250 g ai/ha, scale 0-100): 65

C=Cn1nc(C(C)(C)C)cc1C(=O)Nc1cccc(C(=O)NCC)c1 [Compound 33]
Plant response rating, Crabgrass, Large (large crabgrass; [6]): 65
Plant response rating, Crabgrass, Large (large crabgrass; [7]): 85
Crabgrass, Large plant response rating (large crabgrass; [8]): 90
Crabgrass, Large plant response rating (large crabgrass; [7]): 95
Plant response rating, Velvetleaf (velvetleaf; [6]): 30
Plant response rating, Velvetleaf (velvetleaf; [7]): 40
Velvetleaf plant response rating (velvetleaf; [8]): 20
Velvetleaf plant response rating (velvetleaf; [7]): 80
Plant response rating, Surinam Grass (Surinam grass; [9]): 20
Plant response rating (0 = no effect, 100 = complete control), Surinam Grass (Surinam grass; 62 g ai/ha, preemergence): 20
Plant response rating, Surinam Grass (Surinam grass; [10]): 50
Plant response rating, Surinam Grass (Surinam grass; [11]): 50
Plant response rating, Surinam Grass (Surinam grass; [12]): 50
Plant response rating, Cupgrass, Woolly (woolly cupgrass; [9]): 20
Plant response rating (0 = no effect, 100 = complete control), Cupgrass, Woolly (woolly cupgrass; 62 g ai/ha, preemergence): 20
Plant response rating, Cupgrass, Woolly (woolly cupgrass; [13]): 50
Plant response rating, Cupgrass, Woolly (woolly cupgrass; [14]): 60
Plant response rating, Cupgrass, Woolly (woolly cupgrass; [11]): 50
Plant response rating, Cupgrass, Woolly (woolly cupgrass; [12]): 60
Plant response rating, Goosegrass (goosegrass; [9]): 20
Plant response rating (0 = no effect, 100 = complete control), Goosegrass (goosegrass; 62 g ai/ha, preemergence): 60
Plant response rating, Goosegrass (goosegrass; [13]): 90
Plant response rating, Goosegrass (goosegrass; [14]): 40
Plant response rating, Goosegrass (goosegrass; [11]): 40
Plant response rating, Goosegrass (goosegrass; [12]): 40
Plant response rating, Johnsongrass (johnsongrass; [9]): 20
Plant response rating (0 = no effect, 100 = complete control), Johnsongrass (johnsongrass; 62 g ai/ha, preemergence): 20
Plant response rating, Johnsongrass (johnsongrass; [13]): 80
Plant response rating, Johnsongrass (johnsongrass; [14]): 90
Plant response rating, Johnsongrass (johnsongrass; [11]): 70
Plant response rating, Johnsongrass (johnsongrass; [12]): 90
Plant response rating, Nightshade (eastern black nightshade; 31 g ai/ha, scale 0 to 100): 10
Plant response rating (0 = no effect, 100 = complete control), Nightshade (eastern black nightshade; 62 g ai/ha): 60
Plant response rating, Soybean (soybean; [9]): 0
Plant response rating (0 = no effect, 100 = complete control), Soybean (soybean; 62 g ai/ha, preemergence): 0
Plant response rating, Soybean (soybean; [10]): 90
Plant response rating, Soybean (soybean; [11]): 80
Plant response rating, Soybean (soybean; [12]): 80
Plant response rating, Sunflower ([1]; 31 g ai/ha, scale 0 to 100): 0
Plant response rating (0 = no effect, 100 = complete control), Sunflower ([1]; 62 g ai/ha): 0
